Results reported in US8404283B2, “Standardized plant extract, process for obtaining the same and uses thereof” (Eurofarma Laboratorios Ltda, priority 2007, dated 2013).

What was measured:
[1] = tested on: mice; details: cited from earlier work
[2] = tested on: Swiss Webster mice; assay: formalin induced pain model (Phase I, Phase II, edema); format: in vivo; details: oral administration
Description: This model is more specific than the acetic acid induced abdominal contortion model. It allows the assessment of two distinct types of pain: the pain of neurogenic origin (direct stimulation of the nociceptive neurons) and of inflammatory origin, representing the tonic response to pain, accompanied by an inflammatory response related to the release of chemical inflammation mediators. […] Immediately after the formalin injection, the animals were placed under a glass dome surrounded by mirrors in order to facilitate observation of the ensuing behaviour. Observation commenced immediately, initially timing the reaction to pain during the first 5 minutes after the formalin injection (corresponding to the period of neurogenic pain). Following an interval of 10 minutes, the licking times were recorded for a further 15 minutes (corresponding to the inflammatory pain). Total test time was of 30′.
At the end of this observation period, the animals were sacrificed by cervical displacement and the rear paws were removed at the tibiotarsal region and weighed on an analytical balance to quantify the edema induced by the formalin. The difference in weight (in mg) between the right paw (injected with formalin) and the left paw (injected with saline) was considered the rate of edema. […] Each analysis was performed using 8 to 10 male animals (Swiss Webster mice) weighing between 25 and 30 g.
(§1) The dose was calculated individually for each animal with the quantity in mg/kg (mg/1.000 g) of the substance to be administrated being in accordance to its weight. The injected volume of the solutions followed the rule of 0.1 ml/10 g of the animal's weight.
The animals were observed after the intraplantar injection of formalin for a period of 30 minutes. The reaction time (time in which the animal remains licking the injected paw) is then quantified in each of the phases: phase I (neurogenic pain—5 min observation) and phase II (inflammatory pain—15 min observation).
(§2) Parametric statistical tests were performed on the models described above. The results were submitted to ANOVA variance analysis followed by appropriate post hoc tests. […] The statistical analyses of the results were performed by means of variance analysis followed by the multiple comparison test using the Dunnett method, when appropriate. Values of p<0.05 were considered to indicate significance. The DI50 was estimated by means of individual experiments using GraphPad Instat statistical software.

[3] = tested on: Swiss Webster mice; assay: abdominal contortion model induced by acetic acid; format: in vivo; details: oral administration; for DI50: dose reducing response by 50%, 95% limits; for IM (%): inhibition of number of contortions
Procedure: The experimental acetic acid induced abdominal contortion model allows assessment of the antinociceptive activity of various substances that act both at central and peripheral levels. Nociceptive response is induces by the intraperitonal injection of acetic acid (0.6%) diluted in saline solution (0.9%). The abdominal contortions consist in the contraction of the abdominal muscles combined with the extension of one of the rear paws.
as §1, with “Each analysis was performed using 8 to 10 male animals (Swiss Webster mice) weighing between 25 and 30 g. The dose” for “The dose”
as §2

SMILES	analgesia, potency relative to aspirin ([1]; Meyre-Silva et al. 1999)	DI50 ([2]; Edema) [mg/kg]	IM (%) ([2]; Edema)	DI50 ([2]; Phase I (neurogenic)) [mg/kg]	IM (%) ([2]; Phase I (neurogenic))	DI50 (mg/kg) ([2]; Phase II (inflammatory))	IM (%) ([2]; Phase II (inflammatory))	DI50 [3] [mg/kg]	IM (%) [3] [%]	DI50 (mg/kg) ([2]; Phase I (neurogenic))	analgesic effect on acetic acid induced abdominal contortions ([1]; Meyre-Silva et al. 1998, 1999)
COc1cc2oc(-c3ccc(O)cc3)cc(=O)c2c(O)c1[C@@H]1O[C@H](CO)[C@@H](O)[C@H](O)[C@H]1O[C@@H]1O[C@@H](C)[C@H](O)[C@@H](O)[C@H]1O [2″-O-rhamnosylswertisin]	approximately 16 times	–	–	–	–	–	–	–	–	–	–
COc1ccc2c(c1)c(CC(=O)O)c(C)n2C(=O)c1ccc(Cl)cc1 [Indomethacin]	–	>300	36.5	>300	7.2	263.42 (239.83-289.35) mg/kg	53.1	189.95	72.0	–	–
CC(=O)Oc1ccccc1C(=O)O [AAS]	–	>500	31.7	>500	12.7	408.87 (391.47-427.03) mg/kg	65.7	364.1	64.5	–	–
O=C(O)Cc1ccccc1Nc1c(Cl)cccc1Cl [Diclophenac]	–	>500	33.7	–	68.8	–	82.5	443.07	51.6	407.48 (357.56-464.37) mg/kg	–
COc1cc2oc(-c3ccc(O)cc3)cc(=O)c2c(O)c1[C@@H]1O[C@H](CO)[C@@H](O)[C@H](O)[C@H]1O [swertisin]	–	–	–	–	–	–	–	–	–	–	did not have an analgesic effect
